Test results as given in patent publication US20110092544A1, “FUNGICIDAL PYRIDINES” (E.I. DU PONT DE nemours and company, priority 2008, published 2011).

Tests used:
Type in all cases: in vivo
[1] = system: Erysiphe graminis f. sp. tritici; assay: Test A: wheat powdery mildew, preventive spray on wheat seedlings, visual disease rating
Summary of the method: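 Acetone/water (50/50) suspension with 250 ppm surfactant sprayed to run-off on wheat seedlings (200 ppm ≈ 500 g/ha); inoculated next day with E. graminis spore dust. Incubated 8 days at 20° C, then visually rated 0–100% disease control versus untreated controls; tests at 200 ppm or 40 ppm.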

[2] = system: Puccinia recondite f. sp. tritici; assay: Test B: wheat leaf rust, preventive spray on wheat seedlings, visual disease rating
Summary of the method: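 Wheat seedlings were sprayed to run-off with compound suspension, 200 ppm (≈500 g/ha) or 40 ppm where marked, containing surfactant in acetone/water. Inoculation with Puccinia recondita spores followed one day later, then 24 h in saturated humidity at 20° C and 7 days at 20° C. Disease control was rated visually, 0–100% versus controls.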

Septoria tritici = assay: Test C: wheat leaf blotch, preventive spray on wheat seedlings, visual disease rating
Summary of the method: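 Wheat seedlings sprayed to run-off with compound in acetone/water plus 250 ppm surfactant at 200 ppm (≈500 g/ha), or 40 ppm where marked; inoculated with Septoria tritici next day. Held saturated at 20 °C for 48 h, then 19 days at 20 °C; disease control rated visually 0–100 versus controls.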

Septoria nodorum = assay: Test D: wheat glume blotch, preventive spray on wheat seedlings, visual disease rating
Summary of the method: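 Compounds in 3% acetone, then 50/50 acetone–water with 250 ppm Trem 014, sprayed to run-off at 200 ppm (500 g/ha; some at 40 ppm) one day before spore inoculation. Held 48 h saturated at 20 °C, then 7 days at 20 °C; visual rating as % disease control vs untreated (0–100).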

Alternaria solani = assay: Test E: tomato early blight, preventive spray on tomato seedlings, visual disease rating
Summary of the method: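 Seedlings sprayed to run-off with compound in acetone/water plus 250 ppm Trem 014 (200 ppm ≈ 500 g/ha), inoculated with spores next day. Held 48 h saturated at 27 °C, then 5 days at 20 °C; visual rating 0–100% disease control relative to controls.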

Botrytis cinerea = assay: Test F: tomato botrytis, preventive spray on tomato seedlings, visual disease rating
Summary of the method: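 Tomato seedlings sprayed to run-off with compound suspended in acetone/water (50/50) plus 250 ppm Trem 014, at 200 ppm (≈500 g/ha) or 40 ppm where marked. Inoculated next day with B. cinerea spores, 48 h saturated atmosphere at 20 °C, then 3 days at 24 °C. Visual rating, 0–100% disease control relative to controls.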

Rhizoctonia oryzae = assay: Test G: turf brown patch, preventive spray on creeping bent grass seedlings, visual disease rating
Excerpt: (§1) General protocol for preparing test suspensions for Tests A-H: The test compounds were first dissolved in acetone in an amount equal to 3% of the final volume and then suspended at the desired concentration (in ppm) in acetone and purified water (50/50 mix) containing 250 ppm of the surfactant Trem® 014 (polyhydric alcohol esters). The resulting test suspensions were then used in tests A-H. Spraying a 200 ppm test suspension to the point of run-off on the test plants was the equivalent of a rate of 500 g/ha.
The test suspension was sprayed to the point of run-off on creeping bent grass seedlings. The following day the seedlings were inoculated with a spore suspension of Rhizoctonia oryzae (the causal agent of turf brown patch) and incubated in a saturated atmosphere at 27° C. for 48 h, and then moved to a growth chamber at 27° C. for 3 days, after which time disease ratings were visually made.
(§2) Results for Tests A-H are given in Table A. In the table, a rating of 100 indicates 100% disease control and a rating of 0 indicates no disease control (relative to the controls). A dash (-) indicates no test results. All results are for compounds tested at 200 ppm except where the compound number is followed by “*” which indicates the compound was tested at 40 ppm.

Plasmopara viticola = assay: Test H: grape downy mildew, spray after inoculation of grape seedlings, visual disease rating
Excerpt: as §1
Grape seedlings were inoculated with a spore suspension of Plasmopara viticola (the causal agent of grape downy mildew) and incubated in a saturated atmosphere at 20° C. for 24 h. After a short drying period, the test suspension was sprayed to the point of run-off on the grape seedlings, and then moved to a growth chamber at 20° C. for 6 days, after which time the test units were placed back into a saturated atmosphere at 20° C. for 24 h. Upon removal, disease ratings were visually made.
as §2

[3] = 200 ppm, 100 = 100% disease control, 0 = no control
[4] = 40 ppm (compound number followed by *)

Row | Structure (SMILES) | Test A rating (% disease control) [1, 3] | Test B rating (% disease control) [2, 3] | Test C rating (% disease control) (Septoria tritici; [3]) | Test D rating (% disease control) (Septoria nodorum; [3]) | Test E rating (% disease control) (Alternaria solani; [3]) | Test F rating (% disease control) (Botrytis cinerea; [3]) | Test G rating (% disease control) (Rhizoctonia oryzae; [3]) | Test H rating (% disease control) (Plasmopara viticola; [3]) | further results
1 | COc1cc(OC)cc(-c2c(-c3ccccc3)c(C)nc(C)c2-c2ccccc2F)c1 [Compound 23] | 62% | 80% | 83% | 0% | 0% | 99% | 0% | 0% | –
2 | COc1cc(OC)cc(-c2c(-c3ccc(F)cc3F)cnc(C)c2-c2ccc(F)cc2)c1 [Compound 38] | 95% | 80% | 100% | 0% | 87% | 98% | 56% | 0% | –
3 | COc1cc(OC)cc(-c2c(C(C)C)cnc(C)c2-c2ccccc2)c1 [Compound 4] | 99% | 92% | 99% | 0% | 99% | 99% | 0% | 0% | –
4 | COc1cc(OC)cc(-c2c(-c3ccccc3)c(C)[n+]([O-])c(C)c2-c2ccccc2F)c1 [Compound 24] | – | – | – | – | – | – | – | – | Test A rating (% disease control) [1, 4]: 91%; Test B rating (% disease control) [2, 4]: 95%; Test C rating (% disease control) (Septoria tritici; [4]): 97%; Test D rating (% disease control) (Septoria nodorum; [4]): 0%; Test E rating (% disease control) (Alternaria solani; [4]): 76%; Test F rating (% disease control) (Botrytis cinerea; [4]): 99%; Test G rating (% disease control) (Rhizoctonia oryzae; [4]): 0%; Test H rating (% disease control) (Plasmopara viticola; [4]): 0%
5 | COc1cc(OC)cc(-c2c(C(C)=O)cnc(C)c2-c2ccccc2F)c1 [Compound 17] | 96% | 98% | 100% | 0% | 46% | 99% | 60% | 0% | –
6 | CCOC(=O)c1cnc(CC)c(-c2ccccc2)c1-c1cc(OC)cc(OC)c1 [Compound 31] | 0% | 0% | 80% | 0% | 0% | 41% | 0% | 0% | –
7 | C=C(C)c1cnc(C)c(-c2ccc(F)cc2)c1-c1cc(OC)cc(OC)c1 [Compound 16, 4-(3,5-dimethoxyphenyl)-3-(4-fluorophenyl)-2-methyl-5-(1-methylethenyl)pyridine] | – | – | – | – | – | – | – | – | pest or weed control at 200 ppm ([1]; Blumeria graminis, 192 h, 200 ppm, 100 = 100% disease control, 0 = no control): 99%; pest or weed control at 200 ppm ([2]; 192 h, 200 ppm, 100 = 100% disease control, 0 = no control): 100%; pest or weed control at 200 ppm (Septoria tritici; Zymoseptoria tritici, 504 h, 200 ppm, 100 = 100% disease control, 0 = no control): 100%; pest or weed control at 200 ppm (Septoria nodorum; Parastagonospora nodorum, 216 h, 200 ppm, 100 = 100% disease control, 0 = no control): 73%; pest or weed control at 200 ppm (Alternaria solani; Alternaria solani, 168 h, 200 ppm, 100 = 100% disease control, 0 = no control): 99%; pest or weed control at 200 ppm (Botrytis cinerea; Botrytis cinerea, 120 h, 200 ppm, 100 = 100% disease control, 0 = no control): 99%; pest or weed control at 200 ppm (Rhizoctonia oryzae; Waitea circinata, in Agrostis stolonifera, 120 h, 200 ppm, 100 = 100% disease control, 0 = no control): 99%; pest or weed control at 200 ppm (Plasmopara viticola; Plasmopara viticola, 192 h, 200 ppm, 100 = 100% disease control, 0 = no control): 0%
8 | COc1cc(OC)cc(-c2c(C(C)C)c[n+]([O-])c(C)c2-c2ccccc2)c1 [Compound 5] | 98% | 92% | 95% | 0% | 90% | 99% | 0% | 0% | –
